This data set deals with murine model. Put plainly: Doxorubicin cardiotoxicity: change in T2 of explanted myoglobin sensors. The note with it: myoglobin sensors left in vivo for 72 h after implantation; FIG. 17. The source says: FIG. 17 is a chart, illustrating data from experiments using sensors to detect the cardiotoxic effect of the drug Doxorubicin measured by change in T2 of […] sensors.
Derivatized particles were encapsulated within small diffusion devices. Polycarbonate diffusion membranes (SPI Supplies) were affixed by double-sided adhesive to one side of high-density polyethylene cylinders (thickness=1.6 mm, inner diameter=4.1 mm, outer diameter=7.9 mm). The opposing end was closed off by single-sided adhesive (3M) after the reservoir was filled with 25 μl particle solution. Devices (n=6 per animal) were implanted subcutaneously in the flank. The animals were euthanized and the devices explanted for single-sided relaxometry at specified time points. Devices were sealed with single-sided adhesive and replaced in the implant site for imaging.
The application of the sensors to discern drug cardiotoxicity was also studied. Doxorubicin is a potent anthracycline antibiotic that has found wide clinical use as a cancer chemotherapeutic. […] It was confirmed that serum myoglobin increases after doxorubicin administration in a murine model (as illustrated in FIG. 16), although at an order of magnitude lower concentration than after acute MI (10^2 ng/ml versus 10^3 ng/ml). Myoglobin sensors were thus left in vivo for 72 h after implantation (as opposed to 24 h for acute MI). […]

As to `COc1cccc2c1C(=O)c1c(O)c3c(c(O)c1C2=O)C[C@@](O)(C(=O)CO)C[C@@H]3O[C@H]1C[C@H](N)[C@H](O)[C@H](C)O1` [Doxorubicin], the “sensor T2, experimental versus control groups” value was “clear distinction in sensor T2 between the experimental and control groups”.

(Values after patent US9918656B2, “Implantable magnetic relaxation sensors and methods of measuring a sensor's cumulative exposure to a biomarker” (Massachusetts Institute of Technology, priority 2010, dated 2018).)
